This is an account of results in EPA's ToxValDB 9.5 (doi:10.2903/j.efsa.2018.5378).

The test system of one data set is Apis mellifera. Conditions: acute, duration: 48 hours, mortality.
The subject of another data set is Cyprinus carpio. Conditions: acute; duration: 96 hours; mortality.
For a further data set, the system named is Neomysis kadiakensis. Conditions: chronic/long-term; duration: 28 days; reproduction.
The test system of another data set is Pimephales promelas. The following applies: chronic/long-term, duration: 33 days.
The subject of another data set is Daphnia magna. Conditions: chronic/long-term; duration: 21 days; reproduction.
A further data set concerns Hypoaspis aculeifer. Conditions: chronic/long-term; duration: 14 days; reproduction.
The next data set has as its system Oncorhynchus mykiss. The following applies: acute; duration: 96 hours; mortality.
For a further data set, the system named is Tagia sp. The following applies: chronic/long-term; duration: 56 days; reproduction.
[1] abbreviates: chronic, duration: 2 years, histopathology: neoplastic.

On to `COc1c(Cl)ccc(-c2nc(C(=O)OCc3ccccc3)c(Cl)c(N)c2F)c1F` [Florpyrauxifen-benzyl], for which the LD50 in the data set with Apis mellifera (dermal) was > 100 µg/piece; with Apis mellifera (oral, unspecified), > 105 µg/piece; in the data set with Colinus virginianus (acute, oral, mortality), > 2250 mg/kg-day; with Rattus norvegicus (acute, oral, mortality), > 5000 mg/kg-day. The molecule further returned an NOEL in the data set with Colinus virginianus (reproduction developmental) of 87.2 mg/kg-day. Moreover, the median lethal concentration (LC50) (as a rule, the concentration that kills 50% of the test population) with Cyprinus carpio is > 0.0414 µg/mL. Moreover, the results for the NOEC with Neomysis kadiakensis and in the data set with Pimephales promelas (development) were 0.0078 mg/L and 0.037 mg/L, respectively. Moreover, the NOAEL (commonly the highest tested level that showed no adverse finding) worked out at 50 mg/kg-day in the data set with Rattus norvegicus (setting [1]) and 300 mg/kg-day in the data set with Rattus norvegicus (reproduction developmental, no effects).

In the case of `COc1c(Cl)ccc(-c2nc(C(=O)O)c(Cl)c(N)c2F)c1F` [Florpyrauxifen], the NOEC in the data set with Daphnia magna is 25 mg/L; with Hypoaspis aculeifer, 25 mg/kg; in the data set on Pimephales promelas (other), 29.8 mg/L; in the data set with Tagia sp., 213 mg/kg. Moreover, the LC50 in the data set on Oncorhynchus mykiss was > 100 µg/mL. The molecule also registered an NOAEL with Rattus norvegicus (setting [1]) of 50 mg/kg-day.
